# Test results from patent US11643411B2 (priority 2015, dated 2023).
# Where a name gives a salt, the structure may show the parent alone. Read-outs that look alike come from different tables or passages of the source. Marks after values point to notes of the source that are not given here.
# What was measured:
# human opioid μ receptor = target: T1, human opioid μ receptor (Homo sapiens, UniProt P35372); test: Opioid receptor function test (Lance Ultra cAMP Kit), μ receptor; type: cell-based
# T1 construct: host or cells: CHO cells
# hERG channel = target: T2, hERG channel (Homo sapiens, UniProt Q12809); test: hERG potassium channel inhibition test (automatic patch clamp); type: cell-based; conditions: 10 μM, hERG channel-stably expressing CHO cells, tail current
# T2 construct: host or cells: CHO cells
# Method: The test was performed with Port-a-Patch automatic patch clump apparatus (Nanion Technologies) using hERG channel-stably expressing CHO cells (purchased from Channelopathy Foundation). The membrane potential of the cells was maintained at −80 mV, then there were applied a depolarization pulse at +20 mV for 1.5 seconds, and a following test pulse at −50 mV for 1.5 seconds at a frequency of 1 time per 10 seconds, and the hERG current was confirmed as a tail current induced by the test pulse. The test compound was dissolved in an extracellular fluid (137 mM NaCl, 4 mM KCl, 1.8 mM CaCl2, 1 mM MgCl2, 10 mM D(+)-glucose, 10 mM HEPES, pH 7.4), and the solution was refluxed at room temperature for 5 minutes. The inhibition ratio was obtained from the ratio of the tail current value observed after the compound was applied based on the tail current value observed before the compound was applied, which was taken as 100%.
# C57BL/6N male mice = test: Mouse elevated plus maze test; type: in vivo; conditions: subcutaneous, dose not stated (FIGS. 3 to 5)
# Method: For the test, 5 to 6 weeks old C57BL/6N male mice were used. On a plus maze apparatus consisting of a wall-less running route (open arm, width 6 cm, length 30 cm) and a running route with a wall (closed arm, width 6 cm, length 30 cm, height of wall 15 cm), and having a height of 40 cm, a mouse was put so as to be directed to the running route with a wall, and allowed to spontaneously enter into the plus maze. Each test substance was dissolved in saline or 0.005 N HCl in saline, and subcutaneously administered on the back 30 minutes before the start of the test. At the time of the start of the test, video recording with a video camera was started, the time at which the mouse entered into the plus maze is considered to be the start of the test, and exploratory behavior was recorded for 5 minutes. On the basis of the video image, staying time in the running routes were determined, and wall-less running route staying time ratio (%) was calculated.
# human opioid κ receptor = target: T3, human opioid κ receptor (Homo sapiens, UniProt P41145); test: cell-based
# T3 construct: host or cells: CHO cells
# OBX rats = test: Hyperemotional reaction inhibition test using olfactory bulbectomized (OBX) rat; type: in vivo
# Method: According to the method of Saitoh et al. (Saitoh A, Yamada M, Yamada M, Takahashi K, Yamaguchi K, Murasawa H, Nakatani A, Tatsumi Y, Hirose N, and Kamei J: Antidepressant-like effects of the delta-opioid receptor agonist SNC80 ((+)-4-[(alphaR)-alpha-[(2S,5R)-2,5-dimethyl-4-(2-propenyl)-1-piperazinyl]-(3-methoxyphenyl)methyl]-N,N-diethylbenzamide) in an olfactory bulbectomized rat model, Brain Res., 2008, 1208160-169), OBX rats were prepared by extracting the rat olfactory bulbs, and then breeding the rats in an isolated circumstance. Hyperemotional reaction was evaluated on the day 14 after the surgical operation and before the division into groups, and 2 hours after the administration on the days 1, 4, 7, 10, and 14 of the administration period according to the hyperemotional reaction evaluation criteria prepared by Gomita et al. (Gomita et al., Behavioral pharmacological and electroencephalographical studies of 7-chloro-1-methyl-5-phenyl-1H-1,5-benzodiazepine-2,4-(3H,5H:)-dione (Clobazam), Folia Pharmacologica Japonica, 82, 267 (1983)). The drug was subcutaneously administered once a day continuously over 14 days. As a positive control drug, fluoxetine, which is a selective serotonin reuptake inhibitor (SSRI), was used. As the solvent, a 1% cyclodextrin (CD) was used.
# SD male rats = test: Rat cerebral infarction-induced overactive bladder model (cystometry); type: in vivo
# Method: A transient middle cerebral artery occlusion model was prepared by using 8 weeks old SD male rats under isoflurane inhalation anesthesia. On the next day, the cervix was slightly cut open again under the isoflurane inhalation anesthesia, and a catheter for administration was fixed in the jugular vein, and led to the back. A cystometry operation was also performed, and the other end of a cannula inserted into the bladder was led to the back, and connected to a cannula swivel.
# On the day 4 after the cerebral ischemia operation, cystometry was performed under no anesthesia and with no restraint. Intravesical pressure was measured for the stable period, then a medium was intravenously administered, and the value of the pressure was measured over about 30 minutes as a value before test substance administration. Then, the test substance was cumulatively and intravenously administered from the lowest dose at intervals of about 30 minutes, and the value was measured for about 30 minutes after each administration. For the rats determined to show pollakiuria (urination interval was 10 minutes or shorter) in the measurement before the administration, static intravesical pressure, pressure at the time of urination, urination interval, and single urination amount were measured at each time point.
# [1] = read-out: μ receptor Emax, starred: reaction rate at the maximum concentration (reference value)
# [2] = read-out: κ receptor Emax, starred: reaction rate at the maximum concentration (reference value)
# T2 sequence (Q12809 whole entry): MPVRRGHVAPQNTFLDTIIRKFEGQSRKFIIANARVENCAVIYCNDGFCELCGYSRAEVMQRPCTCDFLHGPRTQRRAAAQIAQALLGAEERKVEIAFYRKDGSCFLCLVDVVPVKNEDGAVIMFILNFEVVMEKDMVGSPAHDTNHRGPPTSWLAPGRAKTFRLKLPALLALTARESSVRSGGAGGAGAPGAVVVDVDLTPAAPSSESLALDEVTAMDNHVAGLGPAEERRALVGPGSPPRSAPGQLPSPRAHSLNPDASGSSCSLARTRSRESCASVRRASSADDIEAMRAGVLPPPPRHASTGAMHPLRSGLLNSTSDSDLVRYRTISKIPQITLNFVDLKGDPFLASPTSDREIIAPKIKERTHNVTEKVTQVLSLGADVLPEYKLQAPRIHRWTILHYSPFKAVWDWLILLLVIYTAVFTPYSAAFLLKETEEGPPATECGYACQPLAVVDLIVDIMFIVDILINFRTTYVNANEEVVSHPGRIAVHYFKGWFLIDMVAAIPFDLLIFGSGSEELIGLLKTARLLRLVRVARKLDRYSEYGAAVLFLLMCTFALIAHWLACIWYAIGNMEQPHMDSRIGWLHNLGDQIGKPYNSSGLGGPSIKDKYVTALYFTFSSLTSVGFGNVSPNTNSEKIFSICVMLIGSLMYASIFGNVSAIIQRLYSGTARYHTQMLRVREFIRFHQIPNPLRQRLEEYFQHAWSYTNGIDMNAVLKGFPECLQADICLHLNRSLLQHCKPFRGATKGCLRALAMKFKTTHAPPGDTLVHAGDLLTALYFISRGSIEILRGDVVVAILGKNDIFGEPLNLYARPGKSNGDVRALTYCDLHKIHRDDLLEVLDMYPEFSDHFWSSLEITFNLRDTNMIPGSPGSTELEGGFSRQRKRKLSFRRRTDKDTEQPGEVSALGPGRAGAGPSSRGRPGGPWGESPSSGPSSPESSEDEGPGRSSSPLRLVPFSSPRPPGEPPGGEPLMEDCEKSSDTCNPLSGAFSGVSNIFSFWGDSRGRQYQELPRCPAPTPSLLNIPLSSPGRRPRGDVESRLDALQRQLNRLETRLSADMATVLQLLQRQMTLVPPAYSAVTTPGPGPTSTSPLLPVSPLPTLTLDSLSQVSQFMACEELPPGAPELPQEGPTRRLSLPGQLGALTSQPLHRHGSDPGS
# T1 sequence (P35372 whole entry): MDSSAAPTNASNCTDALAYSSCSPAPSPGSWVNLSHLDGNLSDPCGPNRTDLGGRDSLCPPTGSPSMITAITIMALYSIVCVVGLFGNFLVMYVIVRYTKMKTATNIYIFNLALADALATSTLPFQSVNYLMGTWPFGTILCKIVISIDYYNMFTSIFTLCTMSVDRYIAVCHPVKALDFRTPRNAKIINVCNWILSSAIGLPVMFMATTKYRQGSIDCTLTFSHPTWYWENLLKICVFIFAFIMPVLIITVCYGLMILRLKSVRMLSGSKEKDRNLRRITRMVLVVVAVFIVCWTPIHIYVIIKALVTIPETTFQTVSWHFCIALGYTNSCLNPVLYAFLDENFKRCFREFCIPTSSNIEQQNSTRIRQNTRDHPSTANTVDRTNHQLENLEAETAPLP
# T3 sequence (P41145 whole entry): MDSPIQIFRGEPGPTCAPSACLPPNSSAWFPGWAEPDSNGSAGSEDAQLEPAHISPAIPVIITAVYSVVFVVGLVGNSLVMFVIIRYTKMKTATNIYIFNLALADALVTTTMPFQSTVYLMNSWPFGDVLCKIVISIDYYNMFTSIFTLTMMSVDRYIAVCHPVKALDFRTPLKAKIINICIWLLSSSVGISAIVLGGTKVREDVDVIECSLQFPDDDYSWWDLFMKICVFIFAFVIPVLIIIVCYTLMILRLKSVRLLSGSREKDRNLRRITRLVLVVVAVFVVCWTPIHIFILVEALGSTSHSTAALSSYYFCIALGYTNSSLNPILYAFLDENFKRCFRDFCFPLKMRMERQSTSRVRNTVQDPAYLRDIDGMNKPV
compound,measurement,setting,value
"O=C(c1cccc[n+]1[O-])N1C[C@H]2C[C@@]34CC[C@@H]1[C@@H]2[C@@]31CCN(CC2CC2)[C@@H]4Cc2ccc(O)cc21 [Example 1, 2-((1S,3aR,5aS,6R,11bR,11cS)-14-(cyclopropylmethyl)-10-hydroxy-2,3,3a,4,5,6,7,11c-octahydro-1H-6,11b-(epiminoethano)-1,5a-methanonaphtho[1,2-e]indole-3-carbonyl)pyridine 1-oxide]",Emax,human opioid μ receptor; [1],8.3%
same,hERG channel inhibitory action,hERG channel,<50%
"O=C(c1ccc[nH]c1=O)N1C[C@H]2C[C@@]34CC[C@@H]1[C@@H]2[C@@]31CCN(CC2CC2)[C@@H]4Cc2ccc(O)cc21 [Example 3, 3-((1S,3aR,5aS,6R,11bR,11cS)-14-(cyclopropylmethyl)-10-hydroxy-2,3,3a,4,5,6,7,11c-octahydro-1H-6,11b-(epiminoethano)-1,5a-methanonaphtho[1,2-e]indole-3-carbonyl)pyridin-2(1H)-one]",wall-less running route staying time ratio,C57BL/6N male mice,showed a tendency of increasing
same,hERG channel inhibitory action,hERG channel,<50%
"O=C(c1ccc[n+]([O-])c1)N1C[C@H]2C[C@@]34CC[C@@H]1[C@@H]2[C@@]31CCN(CC2CC2)[C@@H]4Cc2ccc(O)cc21 [Example 4, 3-((1S,3aR,5aS,6R,11bR,11cS)-14-(cyclopropylmethyl)-10-hydroxy-2,3,3a,4,5,6,7,11c-octahydro-1H-6,11b-(epiminoethano)-1,5a-methanonaphtho[1,2-e]indole-3-carbonyl)pyridine 1-oxide]",Emax,human opioid μ receptor; [1],5.5%
"Cn1cccc(C(=O)N2C[C@H]3C[C@@]45CC[C@@H]2[C@@H]3[C@@]42CCN(CC3CC3)[C@@H]5Cc3ccc(O)cc32)c1=O [Example 6, 3-((1S,3aR,5aS,6R,11bR,11cS)-14-(cyclopropylmethyl)-10-hydroxy-2,3,3a,4,5,6,7,11c-octahydro-1H-6,11b-(epiminoethano)-1,5a-methanonaphtho[1,2-e]indole-3-carbonyl)-1-methylpyridin-2(1H)-one]",Emax,human opioid κ receptor; [2],3.2%
"O=C(c1cccc(=O)[nH]1)N1C[C@H]2C[C@@]34CC[C@@H]1[C@@H]2[C@@]31CCN(CC2CC2)[C@@H]4Cc2ccc(O)cc21 [Example 7, 6-((1S,3aR,5aS,6R,11bR,11cS)-14-(cyclopropylmethyl)-10-hydroxy-2,3,3a,4,5,6,7,11c-octahydro-1H-6,11b-(epiminoethano)-1,5a-methanonaphtho[1,2-e]indole-3-carbonyl)pyridin-2(1H)-one]",hERG channel inhibitory action,hERG channel,<50%
same,Emax,human opioid κ receptor; [2],-0.9%
same,hyperemotional reactions compared with the sham surgery group,"OBX rats; 0.1 mg/kg s.c. once a day, on the day 7 of the administration period",restored the condition even to a level comparable to that of the rats of the sham surgery group
same,hyperemotional reactions compared with the sham surgery group,"OBX rats; 1 mg/kg s.c. once a day, on the day 4 of the administration period",restored the condition even to a level comparable to that of the rats of the sham surgery group
same,single urination amount (in words),SD male rats; 0.01 and 0.1 mg/kg i.v.,dose-dependently increasing tendency
same,urination interval (in words),SD male rats; 0.01 and 0.1 mg/kg i.v.,dose-dependently increasing tendency
same,pressure at the time of urination (in words),SD male rats; at all the doses,did not affect
same,static intravesical pressure (in words),SD male rats; at all the doses,did not affect
"Cn1cc(C(=O)N2C[C@H]3C[C@@]45CC[C@@H]2[C@@H]3[C@@]42CCN(CC3CC3)[C@@H]5Cc3ccc(O)cc32)ccc1=O [Example 9, 5-((1S,3aR,5aS,6R,11bR,11cS)-14-(cyclopropylmethyl)-10-hydroxy-2,3,3a,4,5,6,7,11c-octahydro-1H-6,11b-(epiminoethano)-1,5a-methanonaphtho[1,2-e]indole-3-carbonyl)-1-methylpyridin-2(1H)-one]",wall-less running route staying time ratio,C57BL/6N male mice,showed a tendency of increasing
same,Emax,"human opioid μ receptor; ratio to maximum reaction of control drug DAMGO taken as 100%, read-out: μ receptor Emax",16%
same,hERG channel inhibitory action,hERG channel,<50%
"Cn1c(C(=O)N2C[C@H]3C[C@@]45CC[C@@H]2[C@@H]3[C@@]42CCN(CC3CC3)[C@@H]5Cc3ccc(O)cc32)cccc1=O [Example 10, 6-((1S,3aR,5aS,6R,11bR,11cS)-14-(cyclopropylmethyl)-10-hydroxy-2,3,3a,4,5,6,7,11c-octahydro-1H-6,11b-(epiminoethano)-1,5a-methanonaphtho[1,2-e]indole-3-carbonyl)-1-methylpyridin-2(1H)-one]",wall-less running route staying time ratio,C57BL/6N male mice,showed a tendency of increasing
same,Emax,human opioid μ receptor; [1],6%
same,hERG channel inhibitory action,hERG channel,<50%
same,Emax,human opioid κ receptor; [2],-0.7%
"O=C(c1cc[nH]c(=O)c1)N1C[C@H]2C[C@@]34CC[C@@H]1[C@@H]2[C@@]31CCN(CC2CC2)[C@@H]4Cc2ccc(O)cc21 [Example 11, 4-((1S,3aR,5aS,6R,11bR,11cS)-14-(cyclopropylmethyl)-10-hydroxy-2,3,3a,4,5,6,7,11c-octahydro-1H-6,11b-(epiminoethano)-1,5a-methanonaphtho[1,2-e]indole-3-carbonyl)pyridin-2(1H)-one]",Emax,human opioid κ receptor; [2],-2.5%
"O=C(c1cc(=O)cc[nH]1)N1C[C@H]2C[C@@]34CC[C@@H]1[C@@H]2[C@@]31CCN(CC2CC2)[C@@H]4Cc2ccc(O)cc21 [Example 14, 2-((1S,3aR,5aS,6R,11bR,11cS)-14-(cyclopropylmethyl)-10-hydroxy-2,3,3a,4,5,6,7,11c-octahydro-1H-6,11b-(epiminoethano)-1,5a-methanonaphtho[1,2-e]indole-3-carbonyl)pyridin-4(1H)-one]",Emax,human opioid κ receptor; [2],6.7%
"O=C(c1cc(=O)cco1)N1C[C@H]2C[C@@]34CC[C@@H]1[C@@H]2[C@@]31CCN(CC2CC2)[C@@H]4Cc2ccc(O)cc21 [Example 19, 2-((1S,3aR,5aS,6R,11bR,11cS)-14-(cyclopropylmethyl)-10-hydroxy-2,3,3a,4,5,6,7,11c-octahydro-1H-6,11b-(epiminoethano)-1,5a-methanonaphtho[1,2-e]indole-3-carbonyl)-4H-pyran-4-one]",Emax,human opioid κ receptor; [2],0.6%
"CCn1cc(C(=O)N2C[C@H]3C[C@@]45CC[C@@H]2[C@@H]3[C@@]42CCN(CC3CC3)[C@@H]5Cc3ccc(O)cc32)ccc1=O [Example 28, 5-((1S,3aR,5aS,6R,11bR,11cS)-14-(cyclopropylmethyl)-10-hydroxy-2,3,3a,4,5,6,7,11c-octahydro-1H-6,11b-(epiminoethano)-1,5a-methanonaphtho[1,2-e]indole-3-carbonyl)-1-ethylpyridin-2(1H)-one]",Emax,human opioid κ receptor; read-out: κ receptor Emax,13%
"Cn1cccc(C(=O)N2C[C@H]3C[C@@]45CC[C@@H]2[C@@H]3[C@@]42CCN(CC3CC3)[C@@H]5Cc3ccc(O)cc32)c1=O [Example 31, 3-((1S,3aR,5aS,6R,11bR,11cS)-14-(cyclopropylmethyl)-10-hydroxy-2,3,3a,4,5,6,7,11c-octahydro-1H-6,11b-(epiminoethano)-1,5a-methanonaphtho[1,2-e]indole-3-carbonyl)-1-methylpyridin-2(1H)-one hydrochloride]",Emax,"human opioid κ receptor; maximum reaction not reached, at maximum concentration (10 μM), U-69593 = 100%",3.2* %
